Measured values taken from ChEMBL document CHEMBL1201862, “PubChem BioAssay data set” (2004).
Counter-ions that a name gives are not always drawn. Activity calls are given as the source filed them.

Legend:
[1] = target: G-protein coupled receptor 183 (Homo sapiens, UniProt P32249); experiment: SAR confirmation of small molecule antagonists of the EBI2 receptor via a luminescent beta-arrestin assa.; format: functional
[2] = Potency on glucagon-like peptide 1 release, dose-response in NCI-H716 cell line, half maximal inhibitory concentration (AID 1117344); format: functional, cell-based
[3] = glucagon-like peptide-1 release potency in STC-1, concentration-response, half-maximal inhibitory concentration in the STC-1 line (AID 1117345); format: functional, cell-based
[4] = IC50 of insulin release inhibition, rat insulinoma INS-1E line, 5 mM glucose, cell-based (AID 1117331); format: functional
cells = format: functional, cell-based; settings: INS-1E

Sequence of G-protein coupled receptor 183 (P32249 whole entry): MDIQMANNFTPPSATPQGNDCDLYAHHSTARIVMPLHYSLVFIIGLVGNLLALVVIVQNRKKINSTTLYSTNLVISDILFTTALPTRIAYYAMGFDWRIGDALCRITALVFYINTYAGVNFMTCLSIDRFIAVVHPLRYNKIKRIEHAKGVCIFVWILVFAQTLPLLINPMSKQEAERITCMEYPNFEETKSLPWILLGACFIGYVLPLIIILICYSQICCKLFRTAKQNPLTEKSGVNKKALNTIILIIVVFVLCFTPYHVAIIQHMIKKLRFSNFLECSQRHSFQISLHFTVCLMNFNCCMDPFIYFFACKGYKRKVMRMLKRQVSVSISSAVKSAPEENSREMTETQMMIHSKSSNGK

IC50 [1]	Compound	IC50 [4]	IC50 (cells)	also measured
0.00261 µM (active)	O=C(/C=C/c1ccc(Br)cc1)N1CCN(Cc2cccc(F)c2)CC1			
0.0216 µM (active)	O=C(/C=C/c1ccccc1)N1CCN(Cc2ccc(F)cc2)CC1			
	CC(=O)NO [ACETOHYDROXAMIC ACID]			IC50 [2]: > 40 µM (inactive); IC50 [3]: > 40 µM (inactive)
	CN1CCCN(C(c2ccccc2)c2ccc(Cl)cc2)CC1 (stereo not drawn) [HOMOCHLORCYCLIZINE]	> 3.7 µM (inactive)	> 33.3 µM (inactive)	
	CN(C)C/C=C(/c1ccc(Br)cc1)c1cccnc1 [ZIMELDINE HYDROCHLORIDE]	8.36 µM (inactive)	> 33.3 µM (inactive)	
